Results: patent publication US20100113437A1, “Active Compound Combinations Having Insecticidal and regular, utility” (BAYER CROPSCIENCE AG, priority 2006, published 2010)

Assays:
[1] = test system: Spodoptera frugiperda larvae; test: Spodoptera frugiperda larvae test (Example F, spray); type: in vivo; conditions: single active compound
[2] = test system: Phaedon cochleariae larvae; test: Phaedon cochleariae larvae test (Example D, spray); conditions: single active compound
Aphis gossypii = Aphis gossypii test (Example A, cotton leaves dipped); type: in vivo; conditions: single active compound; for Kill in % after 1d: 100 ppm; for Kill in % after 6d: 0.8 ppm
Myzus persicae [3] = test: Myzus persicae test (Example C, cabbage leaves sprayed, DMF); type: in vivo; conditions: single active compound
[4] = test system: Spodoptera frugiperda larvae; test: Spodoptera frugiperda larvae test (Example G, leaf dip); type: in vivo; conditions: single active compound; for Kill in % after 2d: 100 ppm; for Kill in % after 3d: 4 ppm
Myzus persicae [5] = test: Myzus persicae test (Example B, cabbage leaves sprayed, acetone/DMF); type: in vivo; conditions: single active compound
Plutella xylostella = Plutella xylostella test (Example E, leaf dip); type: in vivo; conditions: 0.8 ppm, single active compound
Tetranychus urticae = test: Tetranychus test, OP-resistant/spray treatment (Example H); type: in vivo; conditions: single active compound; for Kill in % after 6d: 0.8 g/ha
Procedure: Disks of bean leaves (Phaseolus vulgaris) which are infested by all stages of the greenhouse red spider mite (Tetranychus urticae) are sprayed with an active compound preparation of the desired concentration.
After the desired period of time, the activity in % is determined.

Molecule: N#Cc1ccc(CC(=NNC(=O)Nc2ccc(OC(F)(F)F)cc2)c2cccc(C(F)(F)F)c2)cc1 (mixture of isomers) [metaflumizone]
- Kill in % after 6d ([1]; 20 g/ha): 83%
- Kill in % after 6d ([2]; 100 g/ha): 0%

Molecule: CNC(=O)c1cc(Cl)cc(C)c1NC(=O)c1cc(Br)nn1-c1ncccc1Cl [Rynaxapyr]
- Kill in % after 2d ([1]; 0.8 g/ha): 67%
- Kill in % after 1d (Aphis gossypii): 75%
- Kill in % after 1d (Myzus persicae [3]; 4 ppm): 35%

Molecule: CO[C@H]1CC[C@]2(CC1)NC(=O)C(c1cc(C)ccc1C)=C2O [compound (I)]
- Kill in % after 1d (Aphis gossypii): 0%
- Kill in % after 1d (Myzus persicae [3]; 4 ppm): 0%
- Kill in % after 1d (Myzus persicae [3]; 20 ppm): 15%
- Kill in % after 2d [4]: 0%

Molecule: CCOC(=O)OC1=C(c2cc(C)ccc2C)C(=O)N[C@]12CC[C@@H](OC)CC2 [compound (II)]
- Kill in % after 6d ([1]; 0.16 g/ha): 0%
- Kill in % after 6d ([1]; 0.8 g/ha): 0%
- Kill in % after 2d ([1]; 4 g/ha): 0%
- Kill in % after 2d ([1]; 20 g/ha): 0%
- Kill in % after 6d ([1]; 20 g/ha): 0%
- Kill in % after 1d (Myzus persicae [5]; 20 g/ha): 10%
- Kill in % after 1d (Myzus persicae [5]; 100 g/ha): 10%
- Kill in % after 6d (Plutella xylostella): 10%
- Kill in % after 6d (Aphis gossypii): 0%
- Kill in % after 3d [4]: 0%
- Kill in % after 6d ([2]; 20 g/ha): 17%
- Kill in % after 6d ([2]; 100 g/ha): 50%
- Kill in % after 6d (Tetranychus urticae): 50%
- Kill in % after 2d (Tetranychus urticae; 20 g/ha): 10%
- Kill in % after 2d (Tetranychus urticae; 100 g/ha): 20%

Molecule: CCOC(=O)OC1=C(c2cc(C)ccc2C)C(=O)NC12CCC(OC)CC2 (centres unmarked) [compound (IIa)]
- Kill in % after 6d ([1]; 0.16 g/ha): 0%
- Kill in % after 6d ([1]; 0.8 g/ha): 0%
- Kill in % after 2d ([1]; 4 g/ha): 0%
- Kill in % after 2d ([1]; 20 g/ha): 0%
- Kill in % after 6d ([1]; 20 g/ha): 0%
- Kill in % after 1d (Myzus persicae [5]; 20 g/ha): 0%
- Kill in % after 1d (Myzus persicae [5]; 100 g/ha): 0%
- Kill in % after 6d (Plutella xylostella): 80%
- Kill in % after 6d (Aphis gossypii): 0%
- Kill in % after 3d [4]: 0%
- Kill in % after 6d ([2]; 20 g/ha): 0%
- Kill in % after 6d ([2]; 100 g/ha): 67%
- Kill in % after 6d (Tetranychus urticae): 60%
- Kill in % after 2d (Tetranychus urticae; 20 g/ha): 0%
- Kill in % after 2d (Tetranychus urticae; 100 g/ha): 10%

Molecule: COC1CCC2(CC1)NC(=O)C(c1cc(C)ccc1C)=C2O (centres unmarked) [compound (Ia)]
- Kill in % after 1d (Aphis gossypii): 0%
- Kill in % after 1d (Myzus persicae [3]; 4 ppm): 0%
- Kill in % after 1d (Myzus persicae [3]; 20 ppm): 10%
- Kill in % after 2d [4]: 0%

Molecule: CC[S+]([O-])c1c(C#N)nn(-c2c(Cl)cc(C(F)(F)F)cc2Cl)c1N (centres unmarked) [ethiprole]
- Kill in % after 2d (Tetranychus urticae; 20 g/ha): 20%

Molecule: N#Cc1nn(-c2c(Cl)cc(C(F)(F)F)cc2Cl)c(N)c1[S+]([O-])C(F)(F)F (centres unmarked) [fipronil]
- Kill in % after 1d (Myzus persicae [5]; 20 g/ha): 20%
- Kill in % after 1d (Myzus persicae [3]; 20 ppm): 10%
- Kill in % after 6d (Tetranychus urticae): 0%

Molecule: Cc1cc(C(F)(C(F)(F)F)C(F)(F)F)ccc1NC(=O)c1cccc(I)c1C(=O)NC(C)(C)CS(C)(=O)=O [flubendiamide]
- Kill in % after 6d ([1]; 0.8 g/ha): 50%

Molecule: O=C(NC(=O)c1c(F)cccc1F)Nc1ccc(Oc2ccc(C(F)(F)F)cc2Cl)cc1F [flufenoxuron]
- Kill in % after 6d ([1]; 0.16 g/ha): 83%
- Kill in % after 6d ([2]; 20 g/ha): 50%

Molecule: O=C(NC(=O)c1c(F)cccc1F)Nc1cc(Cl)c(OC(F)(F)C(F)C(F)(F)F)cc1Cl (centres unmarked) [lufenuron]
- Kill in % after 2d ([1]; 20 g/ha): 50%
- Kill in % after 2d [4]: 40%
- Kill in % after 6d ([2]; 20 g/ha): 83%

Molecule: O=C(NC(=O)c1ccccc1Cl)Nc1ccc(OC(F)(F)F)cc1 [triflumuron]
- Kill in % after 1d (Myzus persicae [5]; 100 g/ha): 0%
- Kill in % after 2d (Tetranychus urticae; 100 g/ha): 0%

Molecule: emamectin benzoate
- Kill in % after 6d (Aphis gossypii): 15%
